Molecular target: T1, PRKCD (PKC delta) (Homo sapiens, UniProt Q05655)
T1 construct: purchased Thermo Fisher Scientific (Life Technologies) SelectScreen
Assay: SelectScreen Z'LYTE
Type: biochemical
Procedure, shortened: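 Percent values come from Thermo SelectScreen profiling of NU5455, combining activity and binding assays. CSF1R was run in Z'LYTE format at Km app ATP, and CAMK1 in Adapta format with ATP listed at 10.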

T1 sequence (Q05655 whole entry): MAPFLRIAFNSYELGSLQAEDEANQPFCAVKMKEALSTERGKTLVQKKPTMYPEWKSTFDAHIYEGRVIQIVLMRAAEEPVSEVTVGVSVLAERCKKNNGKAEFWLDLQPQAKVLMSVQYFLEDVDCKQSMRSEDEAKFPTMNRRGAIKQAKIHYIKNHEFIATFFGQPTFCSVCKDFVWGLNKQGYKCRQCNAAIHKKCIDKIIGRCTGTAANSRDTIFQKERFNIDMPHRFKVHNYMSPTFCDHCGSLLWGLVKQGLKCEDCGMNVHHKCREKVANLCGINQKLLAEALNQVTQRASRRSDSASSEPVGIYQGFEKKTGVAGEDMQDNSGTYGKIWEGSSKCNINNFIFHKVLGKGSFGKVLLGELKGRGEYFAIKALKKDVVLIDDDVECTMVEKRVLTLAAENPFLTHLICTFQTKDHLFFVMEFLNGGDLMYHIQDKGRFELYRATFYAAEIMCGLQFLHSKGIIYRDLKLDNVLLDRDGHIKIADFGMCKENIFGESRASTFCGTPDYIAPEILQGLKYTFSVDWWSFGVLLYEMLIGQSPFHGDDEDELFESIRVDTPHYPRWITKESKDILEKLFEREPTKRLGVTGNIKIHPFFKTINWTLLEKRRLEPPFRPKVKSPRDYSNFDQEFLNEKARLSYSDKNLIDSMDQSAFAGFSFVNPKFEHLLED

## CN(C(=O)CN1CCOCC1)c1ccc2sc3c(-c4cccc5c(=O)cc(N6CC7CCC(C6)O7)oc45)cccc3c2c1 [NU5455]
  inhibition at 1 µM: 6.2%

Reference: PMC6934184, “Selective DNA-PKcs inhibition extends the therapeutic index of localized radiotherapy and chemotherapy” (The Journal of Clinical Investigation, 2019)
